The source of these data is ChEMBL document CHEMBL1150022, “O-benzyl hydroxyproline as a bioisostere for Phe-Pro: Novel dipeptide thrombin inhibitors” (Bioorg Med Chem Lett, 1996).

Molecules are shown by their SMILES. Where a SMILES comes first, the peptide text is derived from it. [ ]: non-standard residue; d: D form. The star is where a group is joined. Hydrocinnamoyl = O=C(CCc1ccccc1)*; Hyp = O=C(O)[C@@H]1C[C@@H](O)CN1; Propionyl = CCC(=O)*; Bn = c1ccc(C*)cc1; Ms = CS(=O)(=O)*; CH2Cl = ClC*

The target of the assay is Prothrombin (Homo sapiens, UniProt P00734). The assay can be described thus: Inhibition of thrombin.
As a reminder, the IC50 is the concentration that inhibits the measured activity by half. Molecule `CC(=O)N1C[C@H](OCC2CCCCC2)C[C@H]1C(=O)N[C@@H](CCCN=C(N)N)C(=O)CCl` returned an IC50 of 4.9 nM.

Molecule `CC(=O)N1C[C@@H](OCc2ccccc2)C[C@H]1C(=O)N[C@@H](CCCNC(=N)N)C(=O)CCl` showed an IC50 of 4600 nM.

Regarding `NC(N)=NCCC[C@H](NC(=O)[C@@H]1C[C@@H](OCc2ccccc2)CN1C(=O)[C@H](N)Cc1ccccc1)C(=O)CCl`, 3 nM corresponded to half-maximal inhibition (IC50).

With `CS(=O)(=O)N1C[C@H](OCc2ccccc2)C[C@H]1C(=O)N[C@@H](CCCNC(=N)N)C(=O)CCl` (Ms-[Hyp](Bn)-Arg-CH2Cl), the IC50 is 24 nM.

Regarding `CCC(=O)N1C[C@H](OCc2ccccc2)C[C@H]1C(=O)N[C@@H](CCCN=C(N)N)C(=O)CCl` (Propionyl-[Hyp](Bn)-Arg-CH2Cl), the IC50 worked out at 13 nM.

In turn, `CC(=O)N1C[C@H](OCCC(c2ccccc2)c2ccccc2)C[C@H]1C(=O)N[C@@H](CCCN=C(N)N)C(=O)CCl` showed an IC50 of 10 nM.

On to `N=C(N)NCCC[C@H](NC(=O)[C@@H]1CCCN1C(=O)[C@H](N)Cc1ccccc1)C(=O)CCl`, for which the IC50 is 1.5 nM.

Turning to `N=C(N)NCCC[C@H](NC(=O)[C@@H]1C[C@H](OCc2ccccc2)CN1C(=O)[C@H](N)Cc1ccccc1)C(=O)CCl`, it took 7.2 nM to reach half-maximal inhibition (IC50).

Turning to `CC(=O)N1CCC[C@H]1C(=O)N[C@@H](CCCN=C(N)N)C(=O)CCl` (Ac-Pro-Arg-CH2Cl), half-maximal inhibition (IC50) was put at 1350 nM.

On to `N=C(N)NCCC[C@H](NC(=O)[C@@H]1C[C@@H](OCc2ccccc2)CN1C(=O)CCc1ccccc1)C(=O)CCl` (Hydrocinnamoyl-[Hyp](Bn)-Arg-CH2Cl), for which half-maximal inhibition (IC50) required 31.7 nM.

With `CCCCO[C@@H]1C[C@@H](C(=O)N[C@@H](CCCNC(=N)N)C(=O)CCl)N(C(C)=O)C1`, the IC50 was 21.6 nM. The IC50 values of the last two molecules are within 1.5-fold of each other.

In turn, `CC(=O)N1C[C@H](CCc2ccccc2)C[C@H]1C(=O)N[C@@H](CCCN=C(N)N)C(=O)CCl` displayed an IC50 of 40 nM.

Turning to `CC(=O)N1C[C@H](OCc2ccccc2)C[C@H]1C(=O)N[C@@H](CCCNC(=N)N)C(=O)CCl`, the IC50 came out at 0.9 nM.

As for `CCN1C[C@H](OCc2ccccc2)C[C@H]1C(=O)N[C@@H](CCCNC(=N)N)C(=O)CCl`, inhibition was half-maximal at 8600 nM (IC50). Compared with the last molecule, the IC50 is about 9600-fold higher.

`CC(=O)N1C[C@H](OCCCc2ccccc2)C[C@H]1C(=O)N[C@@H](CCCN=C(N)N)C(=O)CCl` displayed a 50% inhibitory concentration (IC50) of 14 nM.
